# According to paper PMC5486949 (SLAS discovery, 2017):
# pEC50, pIC50: −log10 of the molar value. Structures can show the parent of a compound that is named as a salt. Where two headings read alike, the source gives them in different places.
# Tests used:
# PGC-1α/ERRα [1] = assay: PGC/ERR luciferase reporter gene assay, agonist mode; format: cell-based, human; conditions: for pEC50 / AC50: Homo sapiens; for pEC50: read-out: PGC-1α/ERRα (Agonist) EC50; for AC50: read-out: AC50 PGC-ERR ↑
# ERRα [2] = assay: ERR luciferase reporter gene assay, agonist mode; format: cell-based, human; conditions: for AC50: read-out: AC50 ERR ↑
# PGC-1α/ERRα [3] = assay: PGC/ERR luciferase reporter gene assay, antagonist mode; format: cell-based, human; conditions: for pIC50: read-out: PGC-1α/ERRα (Antagonist) IC50; for AC50: read-out: AC50 PGC/ERR ↓
# ERRα [4] = assay: ERR luciferase reporter gene assay, antagonist mode; format: cell-based, human; conditions: for pIC50: read-out: ERRα (Antagonist) IC50; for AC50: read-out: AC50 ERR↓
# ERR cell line (HEK293T) = assay: Cell viability assay multiplexed with ERR antagonist mode assay; format: cell-based, human; conditions: Homo sapiens, HEK-293T, read-out: ERRα (Viability) IC50
# [5] = tested on: ERR and PGC/ERR cell lines; assay: Cell viability; conditions: agonist mode, ERR and PGC/ERR lines (Fig. 3A,B)
# [6] = read-out: ERRα (Agonist) EC50, LOPAC qHTS, dash = inconclusive or no activity
# [7] = Homo sapiens, read-out: ERRα (Agonist) EC50
# [8] = antagonist mode, 0 = inactive or inconclusive
# [9] = agonist mode, 0 = inactive or inconclusive
smiles,measurement,setting,value
Nc1nc(Nc2ccccc2)nc2c1ncn2[C@@H]1O[C@H](CO)[C@@H](O)[C@H]1O [2-Phenylaminoadenosine],pEC50,PGC-1α/ERRα [1],5.77
"Fc1cccc(C=NN=Cc2cccc(F)c2)c1 [3,3 ′-Difluorobenzaldazine]",pEC50,ERRα [2]; [6],4.88
Nc1nccc2c1ncn2[C@@H]1O[C@H](CO)[C@@H](O)[C@H]1O [3-Deazaadenosine],pIC50,PGC-1α/ERRα [3]; Homo sapiens,4.77
"Brc1c(Br)c(Br)c2[nH]cnc2c1Br [4,5,6,7-Tetrabromobenz-imidazole]",pIC50,ERRα [4]; Homo sapiens,4.77
"Brc1c(Br)c(Br)c2[nH]nnc2c1Br [4,5,6,7-Tetrabromobenzo-triazole]",AC50,PGC-1α/ERRα [3]; Homo sapiens,20.9 µM
same,pIC50,PGC-1α/ERRα [3]; Homo sapiens,4.68
same,AC50,ERRα [4]; Homo sapiens,20.9 µM
same,pIC50,ERRα [4]; Homo sapiens,4.73
Nc1ccc(N=Nc2ccccc2)cc1 [4-Aminoazobenzene],pEC50,ERRα [2]; [7],4.96
Cc1cccc(C#Cc2ccccc2)n1 [6-Methyl-2-(phenylethynyl)pyridine HCl],pEC50,ERRα [2]; [7],4.88
CC1=C(C)C(=O)C(CCCCC#CCCCC#CCO)=C(C)C1=O [AA-861],pIC50,ERRα [4]; Homo sapiens,4.90
O=C1NC(=O)/C(=C/c2ccc3c(c2)OC(F)(F)O3)S1 [AS 604850],pEC50,ERRα [2]; [6],5.50
CCCCC[C@H](CC(=O)NO)C(=O)N[C@H](C(=O)N1CCC[C@H]1CO)C(C)C [Actinonin],pIC50,PGC-1α/ERRα [3]; Homo sapiens,5.05
Nc1nc(N)c2nc(CNc3ccc(C(=O)N[C@@H](CCC(=O)O)C(=O)O)cc3)cnc2n1 [Aminopterin],AC50,PGC-1α/ERRα [3]; Homo sapiens,0.0589 µM
same,pIC50,PGC-1α/ERRα [3]; Homo sapiens,7.22
same,AC50,ERRα [4]; Homo sapiens,0.0468 µM
same,pIC50,ERRα [4]; Homo sapiens,7.30
COc1cc(NS(C)(=O)=O)ccc1Nc1c2ccccc2nc2ccccc12 [Amsacrine hydrochloride],pIC50,ERR cell line (HEK293T),4.63
CO[C@H]1O[C@@H]2O[C@@]3(C)CC[C@H]4[C@H](C)CC[C@@H]([C@H]1C)[C@@]24OO3 [Artemether],AC50,PGC-1α/ERRα [3]; Homo sapiens,1.05 µM
same,pIC50,PGC-1α/ERRα [3]; Homo sapiens,6.12
same,AC50,ERRα [4]; Homo sapiens,0.525 µM
same,pIC50,ERRα [4]; Homo sapiens,6.28
COc1ccc(-c2cc3nccn3c(Nc3ncccc3C(N)=O)n2)cc1OC.Cl.O [BAY 61-3606 hydrochloride hydrate],AC50 PGC/ERR ↓,PGC-1α/ERRα [3]; [8],5.63 log10(M)*–1
same,AC50 ERR↓,ERRα [4]; [8],5.53 log10(M)*–1
Nc1ccc(-c2ccc3ccccc3n2)cc1 [BF-170 hydrochloride],AC50 ERR ↑,ERRα [2]; [9],5.58 log10(M)*–1
same,pEC50,ERRα [2]; [6],5.58
same,AC50 PGC-ERR ↑,PGC-1α/ERRα [1]; [9],5.78 log10(M)*–1
Cc1ccc(S(=O)(=O)/C=C/C#N)cc1 [Bay 11-7082],pEC50,ERRα [2]; [6],4.77
C[C@H]1CCC/C=C/[C@@H]2C[C@H](O)C[C@H]2[C@H](O)/C=C/C(=O)O1 [Brefeldin A],pIC50,ERRα [4]; Homo sapiens,5.82
O=C(/C=C/c1ccc(O)c(O)c1)OCCc1ccccc1 [Caffeic acid phenethyl ester],pEC50,PGC-1α/ERRα [1],4.93
O=c1c(-c2ccc(O)cc2)coc2cc(O)ccc12 [Daidzein],AC50,ERRα [2]; Homo sapiens,13.2 µM
same,pEC50,ERRα [2]; [7],4.88
same,AC50,PGC-1α/ERRα [1],20.9 µM
C#C[C@]1(O)CC[C@H]2[C@@H]3CCC4=Cc5oncc5C[C@]4(C)[C@H]3CC[C@@]21C [Danazol],pIC50,ERRα [4]; Homo sapiens,4.83
OCCN(CCO)c1nc(N2CCCCC2)c2nc(N(CCO)CCO)nc(N3CCCCC3)c2n1 [Dipyridamole],pIC50,ERRα [4]; Homo sapiens,4.93
O=c1cc(-c2ccccc2)oc2ccccc12 [Flavone],pEC50,ERRα [2]; [7],5.01
C=C[C@@]1(C)CC(=O)[C@]2(O)[C@@]3(C)[C@@H](O)CCC(C)(C)[C@@H]3[C@H](O)[C@H](OC(C)=O)[C@@]2(C)O1 [Forskolin],pEC50,PGC-1α/ERRα [1],5.88
O=c1c(-c2ccc(O)cc2)coc2cc(O)cc(O)c12 [Genistein],pEC50,"ERRα [2]; Homo sapiens, 18 h, read-out: EC50, ERRα induction, assay optimization, 2000 cells/well, 18 h",5.48
same,pEC50,"ERRα [2]; Homo sapiens, 18 h, read-out: EC50, ERRα induction, assay optimization, 3000 cells/well, 18 h",5.49
same,AC50,ERRα [2]; Homo sapiens,2.95 µM
same,cytotoxicity at concentrations of outfitted points of agonist curves,[5],cytotoxicity did not appear to be the direct cause for the outfitted points
same,AC50,PGC-1α/ERRα [1],3.31 µM
NNc1nncc2ccccc12 [Hydralazine hydrochloride],pEC50,ERRα [2]; [7],6.12
COc1ccc(/C=C2\COc3ccc(C)cc3C2=O)cc1O [IMS2186],pEC50,ERRα [2]; [6],5.97
O=C1Nc2ccccc2/C1=C1/Nc2ccccc2/C1=N\O [Indirubin-3′-oxime],pEC50,ERRα [2]; [6],5.58
O=C1Cc2c([nH]c3ccc(Br)cc23)-c2ccccc2N1 [Kenpaullone],AC50,ERRα [2]; Homo sapiens,2.95 µM
same,pEC50,ERRα [2]; [7],5.53
same,cytotoxicity at concentrations of outfitted points of agonist curves,[5],cytotoxicity did not appear to be the direct cause for the outfitted points
same,AC50,PGC-1α/ERRα [1],1.32 µM
same,pEC50,PGC-1α/ERRα [1],5.88
CC[N+](CC)(CC)CCOc1ccc(/C=C/c2ccccc2)cc1 [MG 624],AC50,PGC-1α/ERRα [3]; Homo sapiens,11.7 µM
same,pIC50,PGC-1α/ERRα [3]; Homo sapiens,4.90
same,AC50,ERRα [4]; Homo sapiens,10.5 µM
same,pIC50,ERRα [4]; Homo sapiens,5.03
CC[C@H](C)C(=O)O[C@H]1CCC=C2C=C[C@H](C)[C@H](CC[C@@H]3C[C@@H](O)CC(=O)O3)[C@H]21 [Mevastatin],pEC50,ERRα [2]; [7],5.53
CC#C[C@]1(O)CC[C@H]2[C@@H]3CCC4=CC(=O)CCC4=C3[C@@H](c3ccc(N(C)C)cc3)C[C@@]21C [Mifepristone],pIC50,ERRα [4]; Homo sapiens,4.63
Nc1ccc(CCNc2ncnc3c2ncn3[C@@H]2O[C@H](CO)[C@@H](O)[C@H]2O)cc1 [N6-2-(4-Aminophenyl)ethyladenosine],pEC50,PGC-1α/ERRα [1],4.93
OC[C@H]1O[C@@H](n2cnc3c(NC4CCCC4)ncnc32)[C@H](O)[C@@H]1O [N6-Cyclopentyladenosine],pEC50,PGC-1α/ERRα [1],5.53
COC(=O)Nc1nc2ccc(C(=O)c3cccs3)cc2[nH]1 [Nocodazole],pEC50,PGC-1α/ERRα [1],5.73
"COc1cccc(-c2cc(=O)c3ccccc3o2)c1N [PD 98,059]",pEC50,ERRα [2]; [6],5.68
Oc1cc(O)cc(/C=C/c2ccc(O)c(O)c2)c1 [Piceatannol],AC50,ERRα [2]; Homo sapiens,8.32 µM
same,pEC50,ERRα [2]; [7],5.08
same,AC50,PGC-1α/ERRα [1],18.6 µM
same,pEC50,PGC-1α/ERRα [1],4.73
CC(=O)[C@H]1CC[C@H]2[C@@H]3CCC4=CC(=O)CC[C@]4(C)[C@H]3CC[C@]12C [Progesterone],pIC50,ERRα [4]; Homo sapiens,4.93
Cc1cccc(-c2[nH]ncc2-c2ccc3ncccc3n2)n1 [RepSox],AC50 PGC/ERR ↓,PGC-1α/ERRα [3],5.93 log10(M)*–1
same,pIC50,PGC-1α/ERRα [3],5.92
same,AC50 ERR↓,ERRα [4],5.88 log10(M)*–1
same,pIC50,ERRα [4],5.88
Oc1ccc(/C=C/c2cc(O)cc(O)c2)cc1 [Resveratrol],AC50,ERRα [2]; Homo sapiens,3.31 µM
same,pEC50,ERRα [2]; [7],5.47
same,AC50,PGC-1α/ERRα [1],11.7 µM
same,pEC50,PGC-1α/ERRα [1],4.93
Cc1nc2sccn2c(=O)c1CCN1CCC(=C(c2ccc(F)cc2)c2ccc(F)cc2)CC1 [Ritanserin],pIC50,ERRα [4]; Homo sapiens,4.77
Oc1ccc(-c2nc(-c3ccncc3)c(-c3ccc(F)cc3)[nH]2)cc1 [SB 202190],pIC50,ERRα [4]; Homo sapiens,4.98
Cc1ccc(O)c(N=Nc2ccccc2)n1 [SIB 1757],pEC50,ERRα [2]; [6],5.08
Cc1cccc(/C=C/c2ccccc2)n1 [SIB 1893],pEC50,ERRα [2]; [6],4.88
COc1ccc(CCCOC(Cn2ccnc2)c2ccc(OC)cc2)cc1 (stereo not drawn) [SKF 96365],pIC50,ERRα [4]; Homo sapiens,4.75
C=CCNc1ncnc2ccc(Br)cc12 [SMER28],AC50 PGC/ERR ↓,PGC-1α/ERRα [3]; [8],4.98 log10(M)*–1
same,AC50 ERR↓,ERRα [4]; [8],5.03 log10(M)*–1
CN(C)c1ccc(C=C2C(=O)Nc3ccccc32)cc1 [SU 4312],pEC50,ERRα [2]; [6],5.47
CN(C)S(=O)(=O)c1ccc2c(c1)/C(=C/c1cc3c([nH]1)CCCC3)C(=O)N2 [SU 6656],pEC50,PGC-1α/ERRα [1],4.63
CC(=O)S[C@@H]1CC2=CC(=O)CC[C@]2(C)[C@H]2CC[C@@]3(C)[C@@H](CC[C@@]34CCC(=O)O4)[C@H]12 [Spironolactone],AC50,PGC-1α/ERRα [3]; Homo sapiens,9.33 µM
same,pIC50,PGC-1α/ERRα [3]; Homo sapiens,5.03
same,AC50,ERRα [4]; Homo sapiens,16.6 µM
same,pIC50,ERRα [4]; Homo sapiens,4.73
CCN1/C(=C/C(C)=O)Sc2ccc(OC)cc21 [TG003],AC50 PGC/ERR ↓,PGC-1α/ERRα [3]; [8],5.23 log10(M)*–1
same,AC50 ERR↓,ERRα [4]; [8],4.93 log10(M)*–1
C/C=C(/C)C(=O)O[C@H]1C(C)=C2[C@H]([C@@H]1OC(=O)CCCCCCC)[C@@](C)(OC(C)=O)C[C@H](OC(=O)CCC)[C@@]1(O)[C@H]2OC(=O)[C@@]1(C)O [Thapsigargin],pIC50,ERR cell line (HEK293T),4.98
same,pIC50,ERRα [4]; Homo sapiens,6.62
COc1ccc(/C=C/C(=O)Nc2ccccc2C(=O)O)cc1OC [Tranilast],pEC50,ERRα [2]; [7],5.77
COc1cc2c(cc1OC)-c1c/c(=N\c3c(C)cc(C)cc3C)n(C)c(=O)n1CC2 [Trequinsin hydrochloride],pIC50,ERRα [4]; Homo sapiens,4.77
CC(C)(C)c1cc(/C=C(\C#N)C(N)=S)cc(C(C)(C)C)c1O [Tyrphostin AG 879],pIC50,ERRα [4]; Homo sapiens,5.63
